Data as given in article PMC11304990, “Identification of mitochondrial ATP synthase as the cellular target of Ru-polypyridyl-β-carboline complexes by affinity-based protein profiling” (National Science Review, 2024).

System: A549 cells
Test: Mitochondrial respiration (OCR) by Seahorse XF analyzer
Type: cell-based, human
Settings: 5 μM
Excerpt: As Ru5 is located in mitochondria and inhibits ATPase related to mitochondrial respiration, we then evaluated its impact on oxygen consumption rate (OCR) using the Seahorse XF analyzer. Ru5 inhibits ATP-linked respiration, basal respiration and maximal respiration capacity, and it also increases the proton leak and alters non-mitochondrial respiration (Fig. 2A and Fig. S43). Accordingly, Ru5 treatment leads to an increase in the opening of the mitochondrial permeability transition pore (MPTP) of A549 in a concentration-dependent manner (Fig. 2B). […] The colocalization of the fluorescence of dihydrorhodamine 123 (DHR-123) with MitoTracker Deep Red (MTDR) indicates ROS are mainly generated in mitochondria (Fig. 2E).
Figure 2. […] (A) Impact of Ru5 (5 μM) on mitochondrial respiration of A549 cells measured by Seahorse. The OCR was measured under basal conditions, and after the sequential addition of oligomycin (1 μM), carbonyl cyanide 4-(trifluoromethoxy)phenylhydrazone (FCCP, 0.8 μM) and a mixture of rotenone (0.5 μM) and antimycin A (0.5 μM, R&A). […] The cells were treated with Ru5 for 6 h and analyzed by flow cytometry. λex = 488 nm, λem = 520 ± 20 nm. (C) Impact of Ru5 (5 μM) on MMP measured by JC-1 staining. […]

With `F[P-](F)(F)(F)(F)F.F[P-](F)(F)(F)(F)F.[Ru+2].c1ccc2c(c1)[nH]c1c(-c3ncc[nH]3)nccc12.c1cnc2c(c1)ccc1cccnc12.c1cnc2c(c1)ccc1cccnc12` [Ru5] the “ATP-linked respiration, basal respiration and maximal respiration capacity (OCR)” value was “inhibits”.
